Assay results from patent US8039501B2, “Synephrine derivatives useful as anti-inflammatory agents” (Universiteit Gent, priority 2005, dated 2011).

Assays:
Assay type in all cases: cell-based, human
MM1.S cell lines = assay: Annexin V/PI assay in MM1.S cells; details: 10^-5 M, FIG. 13
Protocol: 1. […] Procedure: • Human multiple myeloma cell lines L363, U266, MM1.S and MMR.1 are cultured in RPMI 1640 with Glutamax-I, supplemented with 10% FCS, 100 U/ml penicillin and 100 μg/ml streptomycin. Cells are counted and resuspended in fresh medium at a concentration of 1×10^6/ml. Next, 1 ml of cell suspension is transferred to 5 ml culture tubes in the presence of test compounds (DEX, CpdA, CpdA analogues: 10^−7 to 10^−4 M) or vehicle (EtOH) and incubated for 24 or 48 hours at 37° C. • Double-staining of the cells with PI and annexin V is performed according to the instructions of the Annexin V kit (BD Biosciences). • Double-stained cells are analyzed by flow cytometry. […] Graphs are represented as the ratio of early apoptotic cells versus late apoptotic cells (a) or as total % of living cells (b).

AP1 = assay: EMSA of AP1 DNA binding in MCF7 cells; details: FIG. 7B
Protocol: For the EMSA, the MCF7 cells were pre-treated with varying concentrations of CpdA (10, 1, 0.1, 0.01, and 0.001 μM) and DEX (0.1 μM) for two hours and subsequently TNF-induced or non-TNF-induced during 30 min at 2000 IU/ml. After the induction period, nuclear extracts were examined in EMSA assays. Cells were washed with ice-cold PBS, scraped off, and pelleted in 15 ml of PBS by centrifugation for 5 min at 2600 rpm at 4° C. and lysed for 30 minutes at 4° C. in Totex buffer (20 mM HEPES (pH 7.9), 350 mM NaCl, 1 mM MgCl, 0.5 mM EDTA, 0.1 mM EGTA, 5 mM DTT, 20% glycerol, 1% NP-40, 0.1% PMSF, 1% aprotinin (4 mg/ml leupeptin). Supernatants from a 4000-rpm 10-min centrifugation were collected, aliquoted and stored at −20° C. until further use. Radiolabelled oligonucleotides that correspond to a consensus κB DNA-binding element of the IL-6 promoter, and of activating protein 1 (AP-1) DNA target-were used for appropriate EMSA's. These oligonucleotides of about 25 nucleotides comprise centrally the transcription factor binding motif. […] The samples were analyzed by electrophoresis on 6% native polyacrylamide gels. […] Visualization and quantitation of radioactive signals was carried out by a Phosphorlmager and scanned using a bioimaging analyzer (Personal Molecular Imager® FX Bio-Rad). […]

[1] = system: FLS cells (fibroblast-like synoviocytes); assay: Q-PCR/ELISA gene expression in primary FLS of RA patients
Protocol: CpdA was synthesized as described previously. […] They were sacrificed and livers were isolated. […] Gene expression of HPRT was used for normalization. […] Gene expression of HPRT was used for normalization. […] Gene expression of HPRT was used for normalization. Statistical significance was determined by one way anova. […] Gene expression of HPRT was used for normalization. […] Gene expression of HPRT was used for normalization. Statistical significance was determined by one way anova. […] Statistical significance was determined with a Kruskal-Wallis test.
Western blot analysis was performed on total protein extracts with an anti-GR(H-300) antibody. The detection of ERK was used as a loading control. After 8 days of treatment liver samples were taken from the PBS, DEX (20 μg) or CpdA (300 μg) treated DBA/1 mice (FIG. 22B). Q-PCR was performed for the detection of GR in the different samples. Statistical significance was determined with a Mann-Whitney Test. FLS were pre-treated with solvent, DEX (1 μM) or CpdA (10 μM) for 1 hour (set-up 1) or 24 hours (set-up 2), as indicated in the figures. Afterwards, TNF (2000 units/ml) was added for 6 h. Western blot analysis was performed on total extracts with an anti-GR(H-300) antibody (FIG. 19A). Detection of ERK was used as a loading control. The Human Inflammation Array was incubated with medium of cultured FLS and developed following the manufacturer's instruction (FIG. 19B). Total RNA was isolated from the induced FLS and subjected to reverse transcriptase PCR. […] Gene expression of HPRT was used for normalization. Statistical significance was determined by one way anova. […] Since it has been proposed that the cellular sensitivity to GC is directly proportional to the receptor concentration, the mechanism of homologous down-regulation appears to drastically affect the cellular sensitivity of primary human RA-FLS to GC therapy. […] Such an effect can not be observed with CpdA. […] Therefore, it is not surprising that some patients who develop resistance to the therapeutic effects of GC, still display the unwanted effects associated with prolonged GC treatment. […] All publications and patent applications mentioned in this specification are herein incorporated by reference to the same extent as if each independent publication or patent application was specifically and individually indicated to be incorporated by reference. Other embodiments are within the scope of the claims.

CNCC(Cl)c1ccc(OC(C)=O)cc1.Cl (stereo not drawn) [CpdA, 2-(4-acetoxyphenyl)-2-chloro-N-methyl-ethylammonium chloride]
Apoptosis (Annexin V/PI staining) (MM1.S cell lines): able to mediate apoptosis in the MM1.S cell lines at 10-5 M, to a much higher extent than Dex
DNA-binding of transcription factor AP1 (EMSA) (AP1): not affected
Repression of TNF-induced MCP-1, IL-8 and IL-6 after prolonged treatment (set-up 2) ([1]; 10 μM pre-treated 24 hours, TNF 2000 units/ml 6 h, FIG. 19): still able to repress the TNF-induced expression of MCP-1, IL-8 and IL-6
RANKL/OPG ratio ([1]; 10 μM, 24 hours): does not alter the RANKL/OPG ratio
Expression of cathepsin K ([1]; 10 μM, 24 hours, FIG. 18): does not stimulate the expression of cathepsin K
Expression of osteoclast differentiation markers M-CSF and RANKL ([1]; 10 μM, 24 hours, FIG. 18, RANKL solvent versus CpdA p>0.05): does not stimulate the expression
Expression of OPG ([1]; 10 μM, 24 hours, FIG. 18, solvent versus CpdA p>0.05): does not down-regulate the expression of OPG
Transactivation function of GR (GRE-driven PCOLCE2 and GS expression) ([1]; 10 μM, FIG. 20): does not evoke the transactivation function of GR
Expression of pro-inflammatory mediators (anti-inflammatory effect) ([1]; 10 μM, TNF 2000 U/ml 6 hours, FIG. 17): anti-inflammatory effect
